Test results published in patent publication EP0336800A1, “Methods and kit for determining sulfamethazine in animal fluids or feed” (IDETEK, INC., priority 1988, dated 1989).
Several values for one entry are separate records, joined by “and”; a condition that tells them apart may be missing. Identical values can stand only once.

System: anti-sulfamethazine antibody
Experiment: Competitive direct enzyme immunoassay (EIA) with immobilized anti-sulfamethazine antibody and sulfamethazine-HRP conjugate
Format: binding, New Zealand female white rabbits
Details: for % Cross-Reactivity: (nM of sulfamethazine for 50% binding/nM sulfa analogue for 50% binding) x 100; for % Binding Mean: quadruplicate on 14 different days
Description: Each well of the microtiter plate was filled with 200 µL solution of r-Protein A (2 µg/mL in l0 mM PBS, pH 7.2). These strips were sealed and incubated at 4°C for 5 hours. The r-Protein A solution was aspirated and the wells were washed 5 times with saline-Tween (0.9 percent NaCl containing 0.05 percent Tween-20). Each well was then incubated with 300µL solution of 0.l percent casein in 20 mM PBS, pH 7.2, at 37°C for 30 min and washed as described above. Each well was then filled with 200µL of antibody solution (l2.5 µg/mL in 50 mM carbonate-bicarbonate buffer, pH 9.6) and incubated at 4°C overnight (l5-20 hours). The solution was aspirated and the wells air-dried at room temperature for 2-3 hours. The antibody immobilized microtiter wells thus prepared were stored in ziplock bags at 4°C.
The enzyme conjugate (sulfamethazine-HRP) was appropriately diluted (generally l:l000) with 20 mM PBS, pH 7.2, containing 0.0l percent casein (w/v) and mixed with standards or samples in l0:l ratio. The mixture was transferred to wells ([…]) and incubated at 37°C for l hour. The wells were washed five times with 20 mM PBS, pH 7.2, containing 0.05 percent Tween-20 (v/v). Each well was then filled with l00 µL of ABTS substrate solution (combine l:l (v/v) lmM ABTS, 0.lM citrate, pH 4.0, and 0.0l% thimerosal with 0.0l% H₂O₂, and 0.0l% thimerosal) and incubated at 37°C for about 20 min for color (bluish-green) development. The color development was stopped with l00 µL of l percent SDS solution (w/v). Absorbance of the color was monitored at 405 nm in an EIA plate reader. Percent binding was calculated from the absorbance contained in the absence (B′) and presence (B) of sulfamethazine in standards/samples as follows: % binding = (B/B′) x l00.
A standard curve was prepared by plotting log sulfamethazine concentration vs. percent binding. The content of sulfamethazine in an unknown sample was determined from the standard curve.

With Cc1cc(C(C)(C)C)c(O)c(C(C)(C)C)c1 [2,6-Di-tert.-butyl-4-methyl phenol] the “% Cross-Reactivity” value was 0.0%.
Cc1cc(C)nc(N)n1 [2-Amino-4,6-Dimethylpyrimidine] was tested, and the “% Cross-Reactivity” value was 0.07%.
For NS(=O)(=O)c1ccc(C(=O)O)cc1 [4-Carboxybenzenesulfonamide], the “% Cross-Reactivity” value was 0.0%.
COc1cnc(NS(=O)(=O)c2ccc(N)cc2)nc1 [5-Methoxysulfadiazine] was tested, and the “% Cross-Reactivity” value was 0.34%.
With Cc1nc(NS(=O)(=O)c2ccc(N)cc2)oc1C [N′-(4,5-Dimethyloxazol-2-yl) sulfanilamide] the “% Cross-Reactivity” value was 0.0%.
Nc1ccc(S(=O)(=O)Nc2ccc3cn[nH]c3c2)cc1 [N′-(6-Indazolyl) sulfanilamine] was tested, and the “% Cross-Reactivity” value was 0.0%.
In the case of Nc1ccc(S(=O)(=O)NC(=O)c2ccccc2)cc1 [Sulfabenzamide], the “% Cross-Reactivity” value is reported as 0.0%.
In the case of CC(=O)NS(=O)(=O)c1ccc(N)cc1 [Sulfacetamide], the “% Cross-Reactivity” value is reported as 0.66%.
For Nc1ccc(S(=O)(=O)Nc2ccc(Cl)nn2)cc1 [Sulfachloropyridazine], the “% Cross-Reactivity” value was 0.0%.
For Nc1ccc(S(=O)(=O)Nc2ncccn2)cc1 [Sulfadiazine], the “% Cross-Reactivity” value was 0.0%.
For COc1cc(NS(=O)(=O)c2ccc(N)cc2)nc(OC)n1 [Sulfadimethoxine], the “% Cross-Reactivity” value was 0.06%.
[H]/N=C(/N)NS(=O)(=O)c1ccc(N)cc1 [Sulfaguanidine] was tested, and the “% Cross-Reactivity” value was 0.0%.
For Cc1ccnc(NS(=O)(=O)c2ccc(N)cc2)n1 [Sulfamerazine], the “% Cross-Reactivity” value was 12% and 12.10%.
Cc1cc(C)nc(NS(=O)(=O)c2ccc(N)cc2)n1 [Sulfamethazine] was tested, and the “% Cross-Reactivity” value was 100.0%, the “competition with sulfamethazine-HRP conjugate for antibody binding” value (competitive EIA at 0 µg/mL and 0.l µg/mL of sulfamethazine) was “competed effectively” and the “50% inhibition in binding” value (mid-region of the EIA standard curve, standards in swine plasma) was “around 0.l”. The “% Binding Mean” value (sulfamethazine standard 0.016 µg/mL) was 83.1%, the “% Binding Mean” value (sulfamethazine standard 0.031 µg/mL) was 76.0% and the “% Binding Mean” value (sulfamethazine standard 0.063 µg/mL) was 64.2%. For the same molecule, the “% Binding Mean” value (sulfamethazine standard 0.125 µg/mL) was 48.4%, the “% Binding Mean” value (sulfamethazine standard 0.25 µg/mL) was 31.4% and the “% Binding Mean” value (sulfamethazine standard 0.5 µg/mL) was 18.3%. For the same molecule, the “% Binding Mean” value (sulfamethazine standard 1.0 µg/mL) was 10.5%.
With Cc1nnc(NS(=O)(=O)c2ccc(N)cc2)s1 [Sulfamethizole] the “% Cross-Reactivity” value was 0.0%.
Cc1cc(NS(=O)(=O)c2ccc(N)cc2)no1 [Sulfamethoxazole] was tested, and the “% Cross-Reactivity” value was 0.0%.
With COc1ccc(NS(=O)(=O)c2ccc(N)cc2)nn1 [Sulfamethoxypyridazine] the “% Cross-Reactivity” value was 0.0%.
For NS(N)(=O)=O [Sulfamide], the “% Cross-Reactivity” value was 0.0%.
In the case of Nc1ccc(S(N)(=O)=O)cc1 [Sulfanilamide], the “% Cross-Reactivity” value is reported as 0.0%.
Nc1ccc(S(=O)(=O)[O-])cc1.O.[Na+] [Sulfanilic acid, sodium salt hydrate] was tested, and the “% Cross-Reactivity” value was 0.0%.
With Nc1ccc(S(=O)(=O)F)cc1 [Sulfanilyl fluoride] the “% Cross-Reactivity” value was 0.0%.
With CC(=O)Nc1ccc(S(=O)(=O)Nc2ccc([N+](=O)[O-])cc2)cc1 [Sulfanitran] the “% Cross-Reactivity” value was 0.0%.
For Nc1ccc(S(=O)(=O)Nc2ccccn2)cc1 [Sulfapyridine], the “% Cross-Reactivity” value was 0.0%.
With Nc1ccc(S(=O)(=O)Nc2cnc3ccccc3n2)cc1 [Sulfaquinoxaline] the “% Cross-Reactivity” value was 0.0%.
Nc1ccc(S(=O)(=O)Nc2nccs2)cc1 [Sulfathiazole] was tested, and the “% Cross-Reactivity” value was 0.07%.
With Cc1cc(NS(=O)(=O)c2ccc(N)cc2)nc(C)n1 [Sulfisomidine] the “% Cross-Reactivity” value was 0.0%.
In the case of Cc1noc(NS(=O)(=O)c2ccc(N)cc2)c1C [Sulfisoxazole], the “% Cross-Reactivity” value is reported as 0.0%.
With Cc1c[nH]c(=O)[nH]c1=O [Thymine] the “% Cross-Reactivity” value was 0.0%.
Sulfasazine was tested, and the “% Cross-Reactivity” value was 0.0%.
